Measurements taken from US9415114B2, “Conformations of divergent peptides with mineral binding affinity” (KAOHSIUNG MEDICAL UNIVERSITY, priority 2011, dated 2016).

Test: Hydroxylapatite column test (retention time on HAp column by HPLC)
Assay type: binding
Conditions: HAp column 0.7 x 5 cm, eluent 0.5 mM PBS pH 7.4, flow rate 0.25 mL/min, 220 nm; longer retention = higher mineral affinity
Procedure: Hydroxylapatite Column Test
Using the column which is filling hydroxylapatite particles to evaluate the affinity. The diameter and length of hydroxylapatite column are 0.7 and 5 cm, and experimented by High Performance Liquid Chromatography system. The elute solution is 0.5 mM PBS (pH 7.4), the flow rate is 0.25 mL/min, and the wavelength is 220 nm.

Row | Substance | retention time in hydroxylapatite column test
1 | H2N-(Gly)3-(Asp)3-NHAc [L1c] | 13.0 min
2 | HO-Gly-(Asp)6-NHAc [L1b] | 13.3 min
